Results as given in ChEMBL document CHEMBL4732160, “Design and synthesis of 7-O-1,2,3-triazole hesperetin derivatives to relieve inflammation of acute liver injury in mice” (Eur J Med Chem, 2021).
Activity calls are given as the source filed them. The calls are words filed in the database; no cut-off is given here.

Tests used:
RAW264.7 [1] = assay: Antiinflammatory activity in mouse RAW264.7 cells assessed as inhibition of LPS-induced NO production at 10 uM preincubated for 2 hrs followed by LPS stimulation and measured after 24 hrs by Griess method relative to control; type: functional; conditions: time 26 hrs
RAW264.7 [2] = assay: Antiinflammatory activity in mouse RAW264.7 cells assessed as inhibition of LPS-induced NO production preincubated for 2 hrs followed by LPS stimulation and measured after 24 hrs by Griess method; type: functional, cell-based
RAW264.7 [3] = assay: Antiinflammatory activity in mouse RAW264.7 cells assessed as inhibition of LPS-induced IL1beta production at 10 uM preincubated for 1 hr followed by LPS stimulation and measured after 22 hrs by ELISA; type: functional, cell-based; conditions: time 23.0 hrs
RAW264.7 [4] = assay: Antiinflammatory activity in mouse RAW264.7 cells assessed as inhibition of LPS-induced IL6 production at 10 uM preincubated for 1 hr followed by LPS stimulation and measured after 22 hrs by ELISA; type: functional, cell-based; conditions: time 23.0 hrs
[5] = Cytotoxicity against mouse RAW264.7 cells assessed as cell viability at 40 uM measured after 24 hrs by MTT assay relative to control; type: cell-based
RAW264.7 [6] = assay: Antiinflammatory activity in mouse RAW264.7 cells assessed as inhibition of LPS-induced TNFalpha production at 10 uM preincubated for 1 hr followed by LPS stimulation and measured after 22 hrs by ELISA; type: functional, cell-based; conditions: time 23.0 hrs

Row | SMILES | inhibition at 10 µM (RAW264.7 [1]) [%] | IC50 (RAW264.7 [2]) [µM] | inhibition (RAW264.7 [3]) | inhibition (RAW264.7 [4]) | viability at 24 h, 40 µM [5] [%] | inhibition (RAW264.7 [6])
1 | COc1ccc([C@@H]2CC(=O)c3c(O)cc(OCc4cn(C5CCCC5)nn4)cc3O2)cc1O | 53.8 | 10.5 | Active | Active | 110 | Active
2 | COc1ccc([C@@H]2CC(=O)c3c(O)cc(OCc4cn(Cc5ccccc5F)nn4)cc3O2)cc1O | 63.3 | 7.32 | Active | Active | 74 | Active
3 | COc1ccc([C@@H]2CC(=O)c3c(O)cc(OCc4cn(Cc5cccc(C#N)c5)nn4)cc3O2)cc1O | 32.9 | 18 | Active | Active | 56 | Active
4 | COc1ccc([C@@H]2CC(=O)c3c(O)cc(OCc4cn(Cc5ccc(F)cc5)nn4)cc3O2)cc1O | 41.4 | 15.1 | Active | Active | 101 | Active
5 | C=CCn1cc(COc2cc(O)c3c(c2)O[C@H](c2ccc(OC)c(O)c2)CC3=O)nn1 | 50.1 | 13.8 | Active | Active | 118 | Active
6 | C#CCOc1cc(O)c2c(c1)O[C@H](c1ccc(OC)c(O)c1)C/C2=N\O | 38.7 | 19.1 | – | – | – | –
7 | COc1ccc([C@@H]2CC(=O)c3c(O)cc(OCc4cn(Cc5cccc(C)c5)nn4)cc3O2)cc1O | 31 | 17.4 | Active | Active | 113 | Active
8 | Cc1ccc(-c2cc(C(F)(F)F)nn2-c2ccc(S(N)(=O)=O)cc2)cc1 [CELECOXIB] | – | – | Active | Active | 83 | Active
9 | COc1ccc([C@@H]2CC(=O)c3c(O)cc(OCc4cn(CCCO)nn4)cc3O2)cc1O | 32.8 | 16.7 | Active | Active | 121 | Active
10 | COc1ccc2c(c1)c(CC(=O)O)c(C)n2C(=O)c1ccc(Cl)cc1 [INDOMETHACIN] | – | – | Active | Active | 87 | Active
11 | COc1ccc([C@@H]2CC(=O)c3c(O)cc(OCc4cn(CCO)nn4)cc3O2)cc1O | 24.7 | 17.8 | Active | Active | 112 | Active
12 | COc1ccc([C@@H]2CC(=O)c3c(O)cc(OCc4cn(Cc5ccc(Cl)cc5)nn4)cc3O2)cc1O | 29 | 17.8 | Active | Active | 94 | Active
13 | C#CCOc1cc(O)c2c(c1)O[C@H](c1ccc(OC)c(O)c1)CC2=O | 35.2 | 20.9 | – | – | – | –
14 | COc1ccc([C@@H]2CC(=O)c3c(O)cc(OCc4cn(Cc5ccccc5)nn4)cc3O2)cc1O | 49.8 | 11 | Active | Active | 98 | Active
15 | CCn1cc(COc2cc(O)c3c(c2)O[C@H](c2ccc(OC)c(O)c2)CC3=O)nn1 | 41.4 | 15 | Active | Active | 106 | Active
16 | COc1ccc([C@@H]2CC(=O)c3c(O)cc(OCc4cn(CC(=O)c5ccc(F)cc5)nn4)cc3O2)cc1O | 38.5 | 15.4 | Active | Active | 64 | Active
17 | CCCCn1cc(COc2cc(O)c3c(c2)O[C@H](c2ccc(OC)c(O)c2)CC3=O)nn1 | 49.9 | 13.9 | Active | Active | 118 | Active
18 | COc1ccc([C@@H]2CC(=O)c3c(O)cc(OCc4cn(CC(=O)c5ccccc5)nn4)cc3O2)cc1O | 32.1 | 16.9 | Active | Active | 112 | Active

Row | SMILES | inhibition at 10 µM (RAW264.7 [1]) [%] | IC50 (RAW264.7 [2]) [µM] | inhibition (RAW264.7 [3]) | inhibition (RAW264.7 [4]) | viability at 24 h, 40 µM [5] [%] | inhibition (RAW264.7 [6])
19 | COc1ccc([C@@H]2CC(=O)c3c(O)cc(O)cc3O2)cc1O [HESPERETIN] | 18.4 | 48.6 | Active | Active | 121 | Active
20 | COc1ccc([C@@H]2C/C(=N\O)c3c(O)cc(OCc4cn(Cc5ccccc5C)nn4)cc3O2)cc1O | 22.5 | 18 | Active | Active | 83 | Active
21 | COc1ccc([C@@H]2C/C(=N\O)c3c(O)cc(OCc4cn(Cc5ccccc5)nn4)cc3O2)cc1O | 63.6 | 6.13 | Active | Active | 93 | Active
22 | COc1ccc([C@@H]2CC(=O)c3c(O)cc(OCc4cn(C5CCCCC5)nn4)cc3O2)cc1O | 42.4 | 15.6 | Active | Active | 124 | Active
23 | COc1ccc([C@@H]2CC(=O)c3c(O)cc(OCc4cn(Cc5ccc(C(F)(F)F)cc5)nn4)cc3O2)cc1O | 36.4 | 17.7 | Active | Active | 66 | Active
24 | COc1ccc([C@@H]2C/C(=N\O)c3c(O)cc(OCc4cn(CC5CC5)nn4)cc3O2)cc1O | 67 | 6.32 | Active | Active | 86 | Active
25 | COc1ccc([C@@H]2CC(=O)c3c(O)cc(OCc4cn(CC(=O)c5ccccc5OC)nn4)cc3O2)cc1O | 22.8 | 18.9 | Active | Active | 132 | Active
26 | COc1ccc([C@@H]2C/C(=N\O)c3c(O)cc(OCc4cn(Cc5ccccc5F)nn4)cc3O2)cc1O | 65.4 | 5.71 | Active | Active | 82 | Active
27 | COc1ccc([C@@H]2CC(=O)c3c(O)cc(OCc4cn(CC(=O)c5ccccc5F)nn4)cc3O2)cc1O | 34.5 | 18.9 | Active | Active | 113 | Active
28 | CCCCn1cc(COc2cc(O)c3c(c2)O[C@H](c2ccc(OC)c(O)c2)C/C3=N\O)nn1 | 56.9 | 8.9 | Active | Active | 62 | Active
29 | CCn1cc(COc2cc(O)c3c(c2)O[C@H](c2ccc(OC)c(O)c2)C/C3=N\O)nn1 | 65.1 | 3.14 | Active | Active | 101 | Active
30 | COc1ccc([C@@H]2CC(=O)c3c(O)cc(OCc4cn(Cc5ccccc5Cl)nn4)cc3O2)cc1O | 63.1 | 6.14 | Active | Active | 83 | Active
31 | COc1ccc([C@@H]2CC(=O)c3c(O)cc(OCc4cn(Cc5cccc(Cl)c5)nn4)cc3O2)cc1O | 28 | 18.2 | Active | Active | 120 | Active
32 | CCCn1cc(COc2cc(O)c3c(c2)O[C@H](c2ccc(OC)c(O)c2)CC3=O)nn1 | 56.4 | 9.67 | Active | Active | 114 | Active
33 | COc1ccc([C@@H]2CC(=O)c3c(O)cc(OCc4cn(Cc5cccc(C(F)(F)F)c5)nn4)cc3O2)cc1O | 35.5 | 19.9 | Active | Active | 93 | Active
34 | COc1ccc([C@@H]2CC(=O)c3c(O)cc(OCc4cn(Cc5ccccc5C(F)(F)F)nn4)cc3O2)cc1O | 48 | 12.5 | Active | Active | 135 | Active
35 | COc1ccc([C@@H]2CC(=O)c3c(O)cc(OCc4cn(C5CCC5)nn4)cc3O2)cc1O | 44.2 | 15.3 | Active | Active | 111 | Active
